Test results taken from patent US10004722B2, “Method for treating hepatic encephalopathy or a disease associated with free radical mediate stress and oxidative stress with novel functionalized 1,3-benzene diols” (KANNALIFE SCIENCES, INC., priority 2014, dated 2018).
Where “and” joins values, the source holds several entries; their conditions need not be identical. Identical values can stand only once. Like-named read-outs stand apart in the source and are kept apart here.

Legend:
in vivo = test: in vivo; set-up: species or system CD1 mice
Protocol: (§1) The pharmacokinetic profile of compounds of the disclosure are determined in CD1 mice by administering IV and PO doses of the compounds of the disclosure to the CD1 mice. Plasma samples are drawn at 0.083, 0.25, 0.5, 1.0, 2.0, 4.0, 8.0, and 24 hours to determine the plasma concentration of the compounds of the disclosure. Brain and CSF samples were collected at 0.25 hours, 2 hours, and 8 hours post dosing. IV doses were prepared as solutions in 5% Dimethylacetamide (DMAC), 5% Solutol HS 15 and 90% Saline at 0.4 mg/mL PO doses were prepared as solutions in 5% Dimethylacetamide (DMAC), 5% Solutol HS 15 and 90% Saline at 1 mg/mL. Experimental results for exemplary compounds of the disclosure are described in tables 6-9 and FIGS. 1 and 2.

[1] = Pharmacokinetic profile after an IV dose in CD1 mice; assay type: in vivo
Protocol: as §1

hippocampal cultures [2] = test: Neuroprotection from 30 mM ethanol plus 300 μM ammonium acetate, CFDA assay; assay type: cell-based; details: Rattus norvegicus, read-out: NP from ethanol + AmAc CFDA EC50
Description: (§2) Cell cultures: All compounds were screened with dissociated hippocampal cultures derived from embryonic day 18 rats as the primary test system. With this preparation, primary neurons were used to test for toxicity as well as neuroprotection in a highly relevant experimental system to hepatic encephalopathy (HE). In brief, hippocampal tissue was obtained commercially through Brain Bits (Springfield, Ill.) and cultures prepared as previously described (Brewer, 1995). The hippocampal neurons were platted at low density (10,000 cell/well) in a 96-well format and maintained in serum-free medium consisting of Neurobasal Medium supplemented with B27 and GlutaMAX (Gibco). Pre-coated poly-D-lysine coated plates will be used because of the adherence and survival of hippocampal neurons and glia on this matrix support.
(§3) The central objective of all neuroprotective assays was their relevancy to oxidative stress related to HE and other or diseases associated with oxidative stress in general. These studies use phenotypic assays of neuroprotection because the molecular target(s) mediating the action of cannabidiol-like protecting substances is unknown. Both the amount of ethanol and ammonia used in the assays, as well as the time of treatment and duration of the experiment, were designed to be relevant to HE (Ong et al, 2003). […]

hippocampal cultures [3] = test: Neuroprotection from 30 mM ethanol, CFDA assay; assay type: cell-based; details: Rattus norvegicus, read-out: NP from Ethanol CFDA EC50
Protocol: Cell cultures: All compounds were screened with dissociated hippocampal cultures derived from embryonic day 18 rats as the primary test system. […] The hippocampal neurons were platted at low density (10,000 cell/well) in a 96-well format and maintained in serum-free medium consisting of Neurobasal Medium supplemented with B27 and GlutaMAX (Gibco).
The effective working concentration of ethanol that was empirically determined to produce toxicity in the hippocampal cultures was 30 mM.
Carboxyfluorescein (CFDA) was used a vital stain for all neuroprotection studies. With the use of the CytoFluor fluorimeter, the CFDA assay was employed to assess the viability of neurons. […] Cultures were treated within the period of culture vulnerability for toxins relevant to HE: between days 11 and 22 after cell plating. The test agents were evaluated with the two assays during a 5 hour test period. For all assays, a 96-well format was used. […] Cultures were given a complete change of medium prior to the initiation of the treatment period.
A compound of the disclosure was added to the hippocampal cultures for a five hour period. Compounds were tested from 10 nM to 100 μM. At the conclusion of the test period, the cultures were tested for the amount of neuronal viability by the CFDA method. […]

hippocampal cultures [4] = test: Neuroprotection from 300 μM ammonium acetate, CFDA assay; assay type: cell-based; details: Rattus norvegicus, read-out: NP from AmAc CFDA EC50
Description: as §2, §3

hippocampal cultures [5] = test: cells; assay type: cell-based; details: Rattus norvegicus, 30 mM ethanol, propidium iodide, read-out: NP from Ethanol PI EC50
Description: Cell cultures: All compounds were screened with dissociated hippocampal cultures derived from embryonic day 18 rats as the primary test system. With this preparation, primary neurons were used to test for toxicity as well as neuroprotection in a highly relevant experimental system to hepatic encephalopathy (HE). In brief, hippocampal tissue was obtained commercially through Brain Bits (Springfield, Ill.) and cultures prepared as previously described (Brewer, 1995). The hippocampal neurons were platted at low density (10,000 cell/well) in a 96-well format and maintained in serum-free medium consisting of Neurobasal Medium supplemented with B27 and GlutaMAX (Gibco). […]
These studies use phenotypic assays of neuroprotection because the molecular target(s) mediating the action of cannabidiol-like protecting substances is unknown. […] Further, all time parameters employed in these studies were empirically determined to be within the limits of reversible toxic events after treatment with cannabidiol (Hamelink et al., 2005) and cannabidiol-like substances, yet using amounts of ethanol (30 mM) and ammonia (300 μM ammonium acetate) that were relevant to the disease. […]
Carboxyfluorescein (CFDA) was used a vital stain for all neuroprotection studies. […] The test agents were evaluated with the two assays during a 5 hour test period. […]

hippocampal cultures [6] = test: Neuroprotection from 30 mM ethanol plus 300 μM ammonium acetate, propidium iodide (PI) assay; assay type: cell-based; details: Rattus norvegicus, read-out: NP from ethanol + AmAc PI EC50
Description: as §2, §3

hippocampal cultures [7] = test: cells; assay type: cell-based; details: Rattus norvegicus, 300 μM ammonium acetate, propidium iodide, read-out: NP from AmAc PI EC50
Description: as §2, §3

[8] = CD1, mouse, in vivo, po, 10 mg/kg
[9] = PO 10 mg/kg, CD1 mice, 0.25 hr, listed as KLS-13019, 10 mg/kg
[10] = PO 10 mg/kg, CD1 mice, 2 hr, listed as KLS-13019, 10 mg/kg
[11] = CD1, mouse, in vivo, iv, 2 mg/kg

C=C(C)[C@@H]1CCC(C)=C[C@H]1c1c(O)cc(CC2CN(C(C)=O)C2)cc1O [Example 2, 1-(3-(3,5-dihydroxy-4-((1R,6R)-3-methyl-6-(prop-1-en-2-yl)cyclohex-2-enyl)benzyl)azetidin-1-yl)ethanone]
Tmax (in vivo; [8]): 0.25 h | half-life (in vivo; [8]): 5.31 h | concentration at 0.25 h (in vivo; CD1, mouse, in vivo, po, 10 mg/kg, PO 10 mg/kg, CD1 mice, 0.25 hr, read-out: Brain concentration, mean): 469 ng/mL | Kp at 0.25 h (in vivo; CD1, mouse, in vivo, po, 10 mg/kg, PO 10 mg/kg, CD1 mice, 0.25 hr, read-out: Brain/Plasma (%), individual): 0.801 | Kp at 0.25 h (in vivo; CD1, mouse, in vivo, po, 10 mg/kg, PO 10 mg/kg, CD1 mice, 0.25 hr, read-out: Brain/Plasma (%), mean): 0.821 | concentration at 0.25 h (in vivo; CD1, mouse, in vivo, po, 10 mg/kg, PO 10 mg/kg, CD1 mice, 0.25 hr, read-out: CSF concentration, mean): 8.95 ng/mL | Kp at 0.25 h (in vivo; CD1, mouse, in vivo, po, 10 mg/kg, PO 10 mg/kg, CD1 mice, 0.25 hr, read-out: CSF/Plasma (%), individual): 0.0179 | Kp at 0.25 h (in vivo; CD1, mouse, in vivo, po, 10 mg/kg, PO 10 mg/kg, CD1 mice, 0.25 hr, read-out: CSF/Plasma (%), mean): 0.0155 | concentration at 2 h (in vivo; CD1, mouse, in vivo, po, 10 mg/kg, PO 10 mg/kg, CD1 mice, 2 hr, read-out: Brain concentration, mean): 126 ng/mL | Kp at 2 h (in vivo; CD1, mouse, in vivo, po, 10 mg/kg, PO 10 mg/kg, CD1 mice, 2 hr, read-out: Brain/Plasma (%), individual): 1.15 | Kp at 2 h (in vivo; CD1, mouse, in vivo, po, 10 mg/kg, PO 10 mg/kg, CD1 mice, 2 hr, read-out: Brain/Plasma (%), mean): 1.17 | concentration at 2 h (in vivo; CD1, mouse, in vivo, po, 10 mg/kg, PO 10 mg/kg, CD1 mice, 2 hr, read-out: CSF concentration, mean): 2.65 ng/mL | Kp at 2 h (in vivo; CD1, mouse, in vivo, po, 10 mg/kg, PO 10 mg/kg, CD1 mice, 2 hr, read-out: CSF/Plasma (%), individual): 0.0255 | Kp at 2 h (in vivo; CD1, mouse, in vivo, po, 10 mg/kg, PO 10 mg/kg, CD1 mice, 2 hr, read-out: CSF/Plasma (%), mean): 0.0291 | F (in vivo; CD1, mouse, po, 10 mg/kg): 67.1% | Tmax (in vivo; CD1, mouse, po, 10 mg/kg): 0.25 h | half-life (in vivo; CD1, mouse, po, 10 mg/kg): 5.36 h | Brain/CSF, mean (in vivo; PO 10 mg/kg, CD1 mice, 0.25 hr): 53.5 | Brain/CSF, individual (in vivo; [9]): 44.7 and 61.3 and 54.6 | Brain/Plasma (%), individual (in vivo; [9]): 87.4% and 78.7% | CSF/Plasma (%), individual (in vivo; [9]): 1.42% and 1.44% | Brain/CSF, mean (in vivo; PO 10 mg/kg, CD1 mice, 2 hr): 43.7 | Brain/CSF, individual (in vivo; [10]): 45.0 and 60.3 and 25.9 | Brain/Plasma (%), individual (in vivo; [10]): 136% and 101% | CSF concentration, individual (in vivo; [10]): 3.60 ng/mL and 3.00 ng/mL and 1.35 ng/mL | CSF/Plasma (%), individual (in vivo; [10]): 2.26% and 3.91% | Brain concentration, individual (in vivo; PO 10 mg/kg, CD1 mice, 8 hr): BQL | Brain concentration, mean (in vivo; PO 10 mg/kg, CD1 mice, 8 hr): BQL | Brain/Plasma (%), mean (in vivo; PO 10 mg/kg, CD1 mice, 8 hr): BQL | CSF concentration, individual (in vivo; PO 10 mg/kg, CD1 mice, 8 hr): BQL | CSF concentration, mean (in vivo; PO 10 mg/kg, CD1 mice, 8 hr): BQL | CSF/Plasma (%), mean (in vivo; PO 10 mg/kg, CD1 mice, 8 hr): BQL | AUC(0-inf) [1, 11]: 440 ng·h/mL | AUC(0-t) [1, 11]: 431 ng·h/mL | MRT inf [1, 11]: 0.702 h | Vd [1, 11]: 3.19 L/kg | clearance [1, 11]: 75.8 mL/min/kg | half-life ([1]; mouse, plasma, IV 2 mg/kg, CD1 mice, read-out: Terminal t1/2 (converted)): 3.24 h | EC50 (hippocampal cultures [2]): 127 nM | EC50 (hippocampal cultures [3]): 175 nM | EC50 (hippocampal cultures [4]): 61 nM | EC50 (hippocampal cultures [5]): 46 nM | EC50 (hippocampal cultures [6]): 203 nM | EC50 (hippocampal cultures [7]): 38 nM

C=C(C)[C@@H]1CCC(C)=C[C@H]1c1c(O)cc(CC2CN(C(=O)OCC)C2)cc1O [Example 3, ethyl 3-(3,5-dihydroxy-4-((1R,6R)-3-methyl-6-(prop-1-en-2-yl)cyclohex-2-enyl)benzyl)azetidine-1-carboxylate]
EC50 (hippocampal cultures [2]): 87 nM | EC50 (hippocampal cultures [3]): 30 nM | EC50 (hippocampal cultures [4]): 105 nM | EC50 (hippocampal cultures [5]): 20 nM | EC50 (hippocampal cultures [6]): 61 nM | EC50 (hippocampal cultures [7]): 50 nM
